These results are taken from article PMC9856672, “SGC-CAMKK2-1: A Chemical Probe for CAMKK2” (Cells, 2023).

Molecules are shown by their SMILES.

Test [1] has as its target T1, EPHB6 (Homo sapiens, UniProt O15197).
T1 construct: purchased Eurofins DiscoverX KINOMEscan
Nature of the test: KINOMEscan 1 μM, EPHB6. Format: binding. Conditions: 1000 nM; Entrez EPHB6; read-out: Percent Control. From the text: (§1) Supplement cells-12-00287-s001.zip/File S2. KinomeScan data for the CAMKK2 probe and negative control.xlsx, sheet "SGC-CAMKK2-1" | column: Percent Control

Test [2] concerns the target T2, DYRK2 (Homo sapiens, UniProt Q92630).
T2 construct: purchased Eurofins DiscoverX KINOMEscan
The experiment in a line: KINOMEscan 1 μM, DYRK2. As to conditions: 1000 nM; Entrez DYRK2; read-out: Percent Control. The class given is binding.
Source text: as §1

Test [3] addresses T3, SGK2 (Homo sapiens, UniProt Q9HBY8).
T3 construct: purchased Eurofins DiscoverX KINOMEscan
The experiment in a line: KINOMEscan 1 μM, SGK2. Format: binding. As to conditions: 1000 nM; Entrez SGK2; read-out: Percent Control.
Source text: as §1

For test [4], the target named is T4, p38-gamma (Homo sapiens, UniProt P53778).
T4 construct: purchased Eurofins DiscoverX KINOMEscan
The experiment in a line: KINOMEscan 1 μM, p38-gamma. The class given is binding. Conditions: 1000 nM; Entrez MAPK12; read-out: Percent Control.
Source text: as §1

Test [5] addresses T5, CAMK2B (Homo sapiens, UniProt Q13554).
T5 construct: purchased Eurofins DiscoverX KINOMEscan
Nature of the test: KINOMEscan 1 μM, CAMK2B. The class given is binding. Conditions: 1000 nM; Entrez CAMK2B; read-out: Percent Control.
Source text: as §1

Test [6] deals with T6, SGK (Homo sapiens, UniProt O00141).
T6 construct: purchased Eurofins DiscoverX KINOMEscan
The experiment in a line: KINOMEscan 1 μM, SGK. The class given is binding. As to conditions: 1000 nM; Entrez SGK1; read-out: Percent Control.
Source text: as §1

For test [7], the target named is T7, FLT3(D835Y) (Homo sapiens, UniProt P36888, D835Y).
T7 construct: purchased Eurofins DiscoverX KINOMEscan
Nature of the test: KINOMEscan 1 μM, FLT3(D835Y). As to conditions: 1000 nM; Entrez FLT3; read-out: Percent Control. Format: binding.
Source text: as §1

Test [8] concerns the target T8, NIK (Homo sapiens, UniProt Q99558).
T8 construct: purchased Eurofins DiscoverX KINOMEscan
Nature of the test: KINOMEscan 1 μM, NIK. As to conditions: 1000 nM; Entrez MAP3K14; read-out: Percent Control. The class given is binding.
Source text: as §1

Test [9] deals with T9, MST2 (Homo sapiens, UniProt Q13188).
T9 construct: purchased Eurofins DiscoverX KINOMEscan
Nature of the test: KINOMEscan 1 μM, MST2. The class given is binding. Conditions: 1000 nM; Entrez STK3; read-out: Percent Control.
Source text: as §1

The target of test [10] is T10, FLT4 (Homo sapiens, UniProt P35916).
T10 construct: purchased Eurofins DiscoverX KINOMEscan
Nature of the test: KINOMEscan 1 μM, FLT4. The class given is binding. As to conditions: 1000 nM; Entrez FLT4; read-out: Percent Control.
Source text: as §1

In test [11] the target is T11, ALK (Homo sapiens, UniProt Q9UM73).
T11 construct: purchased Eurofins DiscoverX KINOMEscan
The experiment in a line: KINOMEscan 1 μM, ALK. Conditions: 1000 nM; Entrez ALK; read-out: Percent Control. Format: binding.
Source text: as §1

The target in test [12] is T12, ASK1 (Homo sapiens, UniProt Q99683).
T12 construct: purchased Eurofins DiscoverX KINOMEscan
The experiment in a line: KINOMEscan 1 μM, ASK1. The class given is binding. Conditions: 1000 nM; Entrez MAP3K5; read-out: Percent Control.
Source text: as §1

Test [13] addresses T13, BTK (Homo sapiens, UniProt Q06187).
T13 construct: purchased Eurofins DiscoverX KINOMEscan
Nature of the test: KINOMEscan 1 μM, BTK. The class given is binding. Conditions: 1000 nM; Entrez BTK; read-out: Percent Control.
Source text: as §1

Test [14] has as its target T14, BUB1 (Homo sapiens, UniProt O43683).
T14 construct: purchased Eurofins DiscoverX KINOMEscan
The experiment in a line: KINOMEscan 1 μM, BUB1. The class given is binding. As to conditions: 1000 nM; Entrez BUB1; read-out: Percent Control.
Source text: as §1

The target in test [15] is T15, CIT (Homo sapiens, UniProt O14578).
T15 construct: purchased Eurofins DiscoverX KINOMEscan
The experiment in a line: KINOMEscan 1 μM, CIT. The class given is binding. Conditions: 1000 nM; Entrez CIT; read-out: Percent Control.
Source text: as §1

Test [16] addresses T16, FRK (Homo sapiens, UniProt P42685).
T16 construct: purchased Eurofins DiscoverX KINOMEscan
The experiment in a line: KINOMEscan 1 μM, FRK. The class given is binding. As to conditions: 1000 nM; Entrez FRK; read-out: Percent Control.
Source text: as §1

The target in test [17] is T17, GSK3B (Homo sapiens, UniProt P49841).
T17 construct: purchased Eurofins DiscoverX KINOMEscan
Nature of the test: KINOMEscan 1 μM, GSK3B. As to conditions: 1000 nM; Entrez GSK3B; read-out: Percent Control. The class given is binding.
Source text: as §1

The target of test [18] is T18, MAPKAPK2 (Homo sapiens, UniProt P49137).
T18 construct: purchased Eurofins DiscoverX KINOMEscan
Nature of the test: KINOMEscan 1 μM, MAPKAPK2. Format: binding. Conditions: 1000 nM; Entrez MAPKAPK2; read-out: Percent Control.
Source text: as §1

Test [19] has as its target T19, NIM1 (Homo sapiens, UniProt Q8IY84).
T19 construct: purchased Eurofins DiscoverX KINOMEscan
Nature of the test: KINOMEscan 1 μM, NIM1. Conditions: 1000 nM; Entrez MGC42105; read-out: Percent Control. The class given is binding.
Source text: as §1

In test [20] the target is T20, PKAC-alpha (Homo sapiens, UniProt P17612).
T20 construct: purchased Eurofins DiscoverX KINOMEscan
Nature of the test: DiscoverX KINOMEscan binding assay at 1 μM, PKAC-alpha. As to conditions: PKAC-alpha (PRKACA); Compound Concentration 1000 nM; read-out: Percent Control.
Source text: as §1

The target of test [21] is T21, SBK1 (Homo sapiens, UniProt Q52WX2).
T21 construct: purchased Eurofins DiscoverX KINOMEscan
The experiment in a line: DiscoverX KINOMEscan binding assay at 1 μM, SBK1. Conditions: Compound Concentration 1000 nM, read-out: Percent Control.
Source text: as §1

The target of test [22] is T22, CAMK1B (Homo sapiens, UniProt Q6P2M8).
T22 construct: purchased Eurofins DiscoverX KINOMEscan
The experiment in a line: KINOMEscan at 1 μM, CAMK1B. The class given is binding. Conditions: 1000 nM, read-out: Percent Control. From the text: (§2) Supplement cells-12-00287-s001.zip/File S2. KinomeScan data for the CAMKK2 probe and negative control.xlsx, sheet "SGC-CAMKK2-1N" | column: Percent Control

Test [23] addresses T21, SBK1. Nature of the test: KINOMEscan at 1 μM, SBK1. Format: binding. As to conditions: 1000 nM, read-out: Percent Control.
Source text: as §2

The target in test [24] is T23, MARK2 (Homo sapiens, UniProt Q7KZI7).
T23 construct: purchased Eurofins DiscoverX KINOMEscan
The experiment in a line: KINOMEscan at 1 μM, MARK2. The class given is binding. Conditions: 1000 nM, read-out: Percent Control.
Source text: as §2

For test [25], the target named is T24, DYRK1A (Homo sapiens, UniProt Q13627).
T24 construct: purchased Eurofins DiscoverX KINOMEscan
The experiment in a line: KINOMEscan at 1 μM, DYRK1A. Conditions: 1000 nM, read-out: Percent Control. The class given is binding.
Source text: as §2

The target in test [26] is T25, EPHA2 (Homo sapiens, UniProt P29317).
T25 construct: purchased Eurofins DiscoverX KINOMEscan
The experiment in a line: KINOMEscan at 1 μM, EPHA2. The class given is binding. Conditions: 1000 nM, read-out: Percent Control.
Source text: as §2

The target in test [27] is T26, ZAP70 (Homo sapiens, UniProt P43403).
T26 construct: purchased Eurofins DiscoverX KINOMEscan
Nature of the test: KINOMEscan at 1 μM, ZAP70. Format: binding. As to conditions: 1000 nM, read-out: Percent Control.
Source text: as §2

In test [28] the target is T27, LATS2 (Homo sapiens, UniProt Q9NRM7).
T27 construct: purchased Eurofins DiscoverX KINOMEscan
The experiment in a line: KINOMEscan at 1 μM, LATS2. Format: binding. As to conditions: 1000 nM, read-out: Percent Control.
Source text: as §2

In test [29] the target is T12, ASK1. The experiment in a line: KINOMEscan at 1 μM, ASK1. The class given is binding. Conditions: 1000 nM, read-out: Percent Control.
Source text: as §2

Test [30] concerns the target T16, FRK. Nature of the test: KINOMEscan binding assay at 1 μM, FRK. Conditions: Compound Concentration 1000 nM; read-out: Percent Control.
Source text: as §2

Test [31] deals with T28, MLK2 (Homo sapiens, UniProt Q02779).
T28 construct: purchased Eurofins DiscoverX KINOMEscan
The experiment in a line: KINOMEscan binding assay at 1 μM, MLK2. Conditions: Compound Concentration 1000 nM; read-out: Percent Control.
Source text: as §2

Test [32] deals with T29, SIK (Homo sapiens, UniProt P57059).
T29 construct: purchased Eurofins DiscoverX KINOMEscan
The experiment in a line: KINOMEscan binding assay at 1 μM, SIK. Conditions: Compound Concentration 1000 nM; read-out: Percent Control.
Source text: as §2

Test [33] concerns the target T30, TGFBR2 (Homo sapiens, UniProt P37173).
T30 construct: purchased Eurofins DiscoverX KINOMEscan
The experiment in a line: KINOMEscan binding assay at 1 μM, TGFBR2. As to conditions: Compound Concentration 1000 nM; read-out: Percent Control.
Source text: as §2

T12 sequence (Q99683 whole entry): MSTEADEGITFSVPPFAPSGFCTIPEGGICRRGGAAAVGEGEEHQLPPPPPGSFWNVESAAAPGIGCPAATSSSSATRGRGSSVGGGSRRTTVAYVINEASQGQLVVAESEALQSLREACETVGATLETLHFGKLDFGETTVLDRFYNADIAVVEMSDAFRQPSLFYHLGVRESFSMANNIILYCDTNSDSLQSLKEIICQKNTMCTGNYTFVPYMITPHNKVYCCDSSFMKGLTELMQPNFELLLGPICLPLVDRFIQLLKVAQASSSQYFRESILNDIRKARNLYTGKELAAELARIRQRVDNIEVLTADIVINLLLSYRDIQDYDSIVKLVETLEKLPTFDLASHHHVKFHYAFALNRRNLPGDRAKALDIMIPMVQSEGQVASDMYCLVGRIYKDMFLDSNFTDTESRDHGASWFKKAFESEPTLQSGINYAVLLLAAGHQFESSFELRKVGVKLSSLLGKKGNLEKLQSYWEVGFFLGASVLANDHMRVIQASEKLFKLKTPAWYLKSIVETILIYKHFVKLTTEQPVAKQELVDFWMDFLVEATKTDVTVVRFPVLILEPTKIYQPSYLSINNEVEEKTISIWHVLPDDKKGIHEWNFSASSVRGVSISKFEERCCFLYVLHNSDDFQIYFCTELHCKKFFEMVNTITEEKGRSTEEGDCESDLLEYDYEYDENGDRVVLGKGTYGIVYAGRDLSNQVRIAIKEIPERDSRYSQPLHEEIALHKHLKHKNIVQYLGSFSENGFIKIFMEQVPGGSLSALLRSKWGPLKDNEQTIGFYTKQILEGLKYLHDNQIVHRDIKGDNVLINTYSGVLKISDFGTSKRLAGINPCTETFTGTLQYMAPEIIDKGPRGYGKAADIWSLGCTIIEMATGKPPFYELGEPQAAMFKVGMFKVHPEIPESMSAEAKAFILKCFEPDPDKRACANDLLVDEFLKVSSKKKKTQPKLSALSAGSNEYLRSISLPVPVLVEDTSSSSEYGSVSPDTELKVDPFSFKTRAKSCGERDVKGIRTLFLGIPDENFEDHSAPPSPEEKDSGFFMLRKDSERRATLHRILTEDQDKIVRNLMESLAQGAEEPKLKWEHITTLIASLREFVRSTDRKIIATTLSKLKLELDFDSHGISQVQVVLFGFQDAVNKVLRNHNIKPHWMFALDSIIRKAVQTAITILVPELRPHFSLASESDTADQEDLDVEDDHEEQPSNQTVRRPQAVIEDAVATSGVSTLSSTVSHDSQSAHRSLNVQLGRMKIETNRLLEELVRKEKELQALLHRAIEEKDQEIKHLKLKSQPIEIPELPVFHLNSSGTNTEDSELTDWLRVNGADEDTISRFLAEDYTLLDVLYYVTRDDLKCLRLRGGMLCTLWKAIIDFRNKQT
T16 sequence (P42685 whole entry): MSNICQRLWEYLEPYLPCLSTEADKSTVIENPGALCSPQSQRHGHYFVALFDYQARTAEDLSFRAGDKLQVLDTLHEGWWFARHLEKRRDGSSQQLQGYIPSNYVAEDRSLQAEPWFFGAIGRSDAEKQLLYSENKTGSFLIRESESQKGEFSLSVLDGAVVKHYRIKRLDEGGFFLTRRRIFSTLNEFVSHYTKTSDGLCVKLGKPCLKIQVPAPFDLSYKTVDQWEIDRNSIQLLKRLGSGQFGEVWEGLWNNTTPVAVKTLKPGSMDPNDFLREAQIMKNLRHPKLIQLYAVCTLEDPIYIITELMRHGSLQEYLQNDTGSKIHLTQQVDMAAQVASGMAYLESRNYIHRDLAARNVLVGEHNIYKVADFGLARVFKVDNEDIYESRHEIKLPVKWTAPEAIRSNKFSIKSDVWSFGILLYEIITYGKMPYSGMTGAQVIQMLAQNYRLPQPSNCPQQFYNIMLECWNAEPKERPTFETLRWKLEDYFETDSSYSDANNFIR
T21 sequence (Q52WX2 whole entry): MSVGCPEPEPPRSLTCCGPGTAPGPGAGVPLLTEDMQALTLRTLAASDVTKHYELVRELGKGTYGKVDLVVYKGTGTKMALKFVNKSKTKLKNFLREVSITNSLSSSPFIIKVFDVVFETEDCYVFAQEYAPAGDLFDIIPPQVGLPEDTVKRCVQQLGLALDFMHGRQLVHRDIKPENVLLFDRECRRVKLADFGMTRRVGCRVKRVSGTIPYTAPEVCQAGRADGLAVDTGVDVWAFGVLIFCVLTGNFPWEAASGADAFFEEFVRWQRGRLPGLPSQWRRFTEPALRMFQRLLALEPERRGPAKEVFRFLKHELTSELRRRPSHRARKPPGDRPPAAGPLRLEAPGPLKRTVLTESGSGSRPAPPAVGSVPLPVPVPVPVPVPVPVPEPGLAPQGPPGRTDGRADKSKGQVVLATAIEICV
T2 sequence (Q92630 whole entry): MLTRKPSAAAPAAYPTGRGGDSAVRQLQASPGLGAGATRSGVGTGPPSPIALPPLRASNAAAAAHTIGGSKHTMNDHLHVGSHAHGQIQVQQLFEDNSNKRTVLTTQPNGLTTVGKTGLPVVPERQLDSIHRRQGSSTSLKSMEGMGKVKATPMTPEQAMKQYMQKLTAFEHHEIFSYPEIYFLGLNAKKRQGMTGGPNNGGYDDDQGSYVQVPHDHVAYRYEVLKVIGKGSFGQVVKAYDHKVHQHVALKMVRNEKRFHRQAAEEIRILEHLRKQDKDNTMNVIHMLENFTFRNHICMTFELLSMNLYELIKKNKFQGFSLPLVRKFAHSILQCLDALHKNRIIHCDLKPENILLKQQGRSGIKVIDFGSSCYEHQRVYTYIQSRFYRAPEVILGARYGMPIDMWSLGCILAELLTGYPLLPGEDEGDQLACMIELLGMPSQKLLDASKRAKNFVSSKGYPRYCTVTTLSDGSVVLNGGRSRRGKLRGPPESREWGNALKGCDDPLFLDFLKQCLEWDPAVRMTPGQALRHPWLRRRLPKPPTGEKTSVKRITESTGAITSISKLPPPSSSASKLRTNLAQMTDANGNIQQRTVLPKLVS
T25 sequence (P29317 24-976): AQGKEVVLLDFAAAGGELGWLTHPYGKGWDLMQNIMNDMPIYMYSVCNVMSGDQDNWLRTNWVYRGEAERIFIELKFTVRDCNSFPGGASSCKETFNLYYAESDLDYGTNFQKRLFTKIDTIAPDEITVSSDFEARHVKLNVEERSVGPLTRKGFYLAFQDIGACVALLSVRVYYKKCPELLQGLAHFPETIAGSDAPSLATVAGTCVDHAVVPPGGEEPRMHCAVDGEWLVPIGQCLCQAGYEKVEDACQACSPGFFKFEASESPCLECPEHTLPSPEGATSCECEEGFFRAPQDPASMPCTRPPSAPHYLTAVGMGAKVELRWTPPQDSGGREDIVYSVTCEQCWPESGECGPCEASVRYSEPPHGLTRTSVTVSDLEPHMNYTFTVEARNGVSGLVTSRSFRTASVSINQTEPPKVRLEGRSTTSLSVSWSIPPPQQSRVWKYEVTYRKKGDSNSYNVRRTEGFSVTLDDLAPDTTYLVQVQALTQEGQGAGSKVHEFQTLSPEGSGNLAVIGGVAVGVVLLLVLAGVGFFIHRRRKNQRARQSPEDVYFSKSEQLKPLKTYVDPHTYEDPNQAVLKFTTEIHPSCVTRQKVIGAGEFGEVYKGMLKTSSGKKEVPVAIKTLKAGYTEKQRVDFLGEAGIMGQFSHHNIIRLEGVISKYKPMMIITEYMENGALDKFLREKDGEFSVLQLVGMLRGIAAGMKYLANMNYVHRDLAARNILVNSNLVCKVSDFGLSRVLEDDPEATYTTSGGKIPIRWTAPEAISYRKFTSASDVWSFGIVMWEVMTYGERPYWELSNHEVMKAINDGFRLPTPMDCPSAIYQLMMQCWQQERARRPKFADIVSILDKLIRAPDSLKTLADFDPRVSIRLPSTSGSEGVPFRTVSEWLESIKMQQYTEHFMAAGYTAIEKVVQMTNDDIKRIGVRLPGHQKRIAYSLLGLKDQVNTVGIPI
T4 sequence (P53778 whole entry): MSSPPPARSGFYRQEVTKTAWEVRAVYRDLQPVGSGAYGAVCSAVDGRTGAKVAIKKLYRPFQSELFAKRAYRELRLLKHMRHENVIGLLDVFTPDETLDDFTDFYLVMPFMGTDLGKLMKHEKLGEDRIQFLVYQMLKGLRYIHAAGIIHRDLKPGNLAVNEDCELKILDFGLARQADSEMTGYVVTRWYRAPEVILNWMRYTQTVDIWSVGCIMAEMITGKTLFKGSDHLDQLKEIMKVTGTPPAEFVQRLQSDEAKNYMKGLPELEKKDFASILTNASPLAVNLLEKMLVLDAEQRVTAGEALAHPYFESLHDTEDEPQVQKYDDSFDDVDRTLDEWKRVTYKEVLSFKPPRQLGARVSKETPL
T19 sequence (Q8IY84 whole entry): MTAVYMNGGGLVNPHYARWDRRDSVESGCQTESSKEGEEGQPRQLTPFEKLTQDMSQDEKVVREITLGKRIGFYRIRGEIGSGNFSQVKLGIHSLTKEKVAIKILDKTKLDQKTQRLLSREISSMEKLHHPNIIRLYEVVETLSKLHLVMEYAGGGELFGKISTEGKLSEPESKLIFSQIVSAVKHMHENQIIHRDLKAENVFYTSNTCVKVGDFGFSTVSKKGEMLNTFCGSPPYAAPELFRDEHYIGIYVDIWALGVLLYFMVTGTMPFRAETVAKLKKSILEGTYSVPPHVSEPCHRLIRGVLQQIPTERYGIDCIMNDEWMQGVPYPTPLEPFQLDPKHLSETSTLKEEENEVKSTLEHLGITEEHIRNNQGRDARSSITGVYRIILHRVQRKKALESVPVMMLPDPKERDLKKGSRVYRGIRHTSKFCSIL
T22 sequence (Q6P2M8 whole entry): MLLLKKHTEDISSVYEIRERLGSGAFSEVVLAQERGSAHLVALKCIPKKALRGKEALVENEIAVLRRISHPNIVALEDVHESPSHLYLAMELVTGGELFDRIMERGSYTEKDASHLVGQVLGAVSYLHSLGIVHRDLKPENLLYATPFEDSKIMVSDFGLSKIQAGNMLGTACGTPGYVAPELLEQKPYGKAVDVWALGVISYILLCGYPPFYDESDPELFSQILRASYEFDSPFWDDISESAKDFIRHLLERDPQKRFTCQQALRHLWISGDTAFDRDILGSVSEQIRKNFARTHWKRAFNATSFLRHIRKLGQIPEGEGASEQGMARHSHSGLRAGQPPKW

On to `Cc1cccc(-c2cnc3occ(-c4ccc(C(=O)O)c(C5CCCC5)c4)c3c2)c1` [SGC-CAMKK2-1 (YL-36)], for which the remaining binding at 1 µM in [1] turned out to be 43%; in [2], 69%; in test [3], 78%; in test [4], 82%; in [5], 86%; in test [6] it was 86%. Further, the remaining binding at 1 µM in [7] came out at 89%; in test [8], 89%; in test [9], 95%; in test [10] it was 96%; in [11] it was 100%; in [12], 100%. For the same molecule, the remaining binding at 1 µM in test [13], in test [14], in test [15], in test [16], in test [17] and in test [18] was 100% each time. The remaining binding at 1 µM in [19], in [20] and in test [21] was 100% each time.
For `O=C(O)c1ccc(-c2coc3ncc(-c4ccccc4)cc23)cc1Cl` [SGC-CAMKK2-1N (UNC-YL-83)], the remaining binding at 1 µM in test [22] was 61%; in test [23], 67%; in test [24] it was 70%; in test [25] it was 71%; in test [26], 76%; in test [27], 85%. For the same molecule, the remaining binding at 1 µM in test [28] was 87%; in test [29] it was 100%; in test [30] it was 100%; in [31], 100%; in [32] it was 100%; in test [33] it was 100%.
